# According to the supplement of paper PMC10307832:
# Columns and labels:
# Assay in all cases: relative viability (nuclei count vs DMSO), 5 days (fraction); higher = more cells survive
# [1] = system: A-427
# Method in brief: (§1)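 Lung cancer cell lines were pin-tool dosed in 1536-well plates on the day after seeding, with either a lone drug or a fixed anchor-drug dose plus five library-drug doses (not always all listed) in √10 steps. Nuclei were counted on 4× images after 5 days. Relative viability is the ratio of treated-well to vehicle-well nuclei counts, with each value a median of duplicate plates.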
# [2] = system: BEN
# Method in brief: as §1
# [3] = system: H3255
# Method in brief: as §1
# [4] = system: HCC-15
# Method in brief: as §1
# [5] = system: LC-2-ad
# Method in brief: as §1
# [6] = system: LCLC-97TM1
# Method in brief: as §1
# [7] = system: NCI-H1395
# Method in brief: as §1
# [8] = system: NCI-H1650
# Method in brief: as §1
# [9] = system: NCI-H1651
# Method in brief: as §1
# [10] = system: NCI-H1755
# Method in brief: as §1
# [11] = system: NCI-H1792
# Method in brief: as §1
# [12] = system: NCI-H1993
# Method in brief: as §1
# [13] = system: NCI-H2009
# Method in brief: as §1
# [14] = system: NCI-H2085
# Method in brief: as §1
# [15] = system: NCI-H23
# Method in brief: as §1
# [16] = system: NCI-H520
# Method in brief: as §1
# [17] = system: NCI-H647
# Method in brief: as §1
# [18] = system: NCI-H650
# Method in brief: as §1
# [19] = system: NCI-H661
# Method in brief: as §1
# [20] = system: NCI-H727
# Method in brief: as §1
# [21] = system: NCI-H838
# Method in brief: as §1
# [22] = system: PC-3 [JPC-3]
# Method in brief: as §1
# [23] = system: RERF-LC-KJ
# Method in brief: as §1
# [24] = system: SK-LU-1
# Method in brief: as §1
# [25] = system: SK-MES-1
# Method in brief: as §1
structure (smiles),measurement,setting,value
Nc1cccc2c1CN(C1CCC(=O)NC1=O)C2=O (stereo not drawn) [Lenalidomide] + CC(=O)c1c(C)c2cnc(Nc3ccc(N4CCNCC4)cn3)nc2n(C2CCCC2)c1=O [Palbociclib] (partner 0.5 µM),relative viability,[1]; first compound 0.253 µM,0.529
same,relative viability,[1]; first compound 0.8 µM,0.49
same,relative viability,[1]; first compound 2.53 µM,0.548
same,relative viability,[1]; first compound 8 µM,0.529
same,relative viability,[2]; first compound 0.253 µM,0.478
same,relative viability,[2]; first compound 0.8 µM,0.496
same,relative viability,[2]; first compound 2.53 µM,0.418
same,relative viability,[2]; first compound 8 µM,0.556
same,relative viability,[3]; first compound 0.253 µM,0.312
same,relative viability,[3]; first compound 0.8 µM,0.302
same,relative viability,[3]; first compound 2.53 µM,0.314
same,relative viability,[3]; first compound 8 µM,0.314
same,relative viability,[4]; first compound 0.253 µM,0.685
same,relative viability,[4]; first compound 0.8 µM,0.683
same,relative viability,[4]; first compound 2.53 µM,0.904
same,relative viability,[4]; first compound 8 µM,0.708
same,relative viability,[5]; first compound 0.253 µM,0.549
same,relative viability,[5]; first compound 0.8 µM,0.551
same,relative viability,[5]; first compound 2.53 µM,0.533
same,relative viability,[5]; first compound 8 µM,0.531
same,relative viability,[6]; first compound 0.253 µM,0.229
same,relative viability,[6]; first compound 0.8 µM,0.185
same,relative viability,[6]; first compound 2.53 µM,0.209
same,relative viability,[6]; first compound 8 µM,0.212
same,relative viability,[7]; first compound 0.253 µM,0.649
same,relative viability,[7]; first compound 2.53 µM,0.701
same,relative viability,[7]; first compound 8 µM,0.592
same,relative viability,[8]; first compound 0.253 µM,0.339
same,relative viability,[8]; first compound 0.8 µM,0.279
same,relative viability,[8]; first compound 2.53 µM,0.343
same,relative viability,[8]; first compound 8 µM,0.453
same,relative viability,[9]; first compound 0.253 µM,0.504
same,relative viability,[9]; first compound 0.8 µM,0.485
same,relative viability,[9]; first compound 2.53 µM,0.526
same,relative viability,[9]; first compound 8 µM,0.489
same,relative viability,[10]; first compound 0.253 µM,0.451
same,relative viability,[10]; first compound 0.8 µM,0.434
same,relative viability,[10]; first compound 2.53 µM,0.429
same,relative viability,[10]; first compound 8 µM,0.441
same,relative viability,[11]; first compound 0.253 µM,0.656
same,relative viability,[11]; first compound 0.8 µM,0.754
same,relative viability,[11]; first compound 2.53 µM,0.745
same,relative viability,[11]; first compound 8 µM,0.675
same,relative viability,[12]; first compound 0.253 µM,0.789
same,relative viability,[12]; first compound 0.8 µM,0.659
same,relative viability,[12]; first compound 2.53 µM,0.729
same,relative viability,[12]; first compound 8 µM,0.455
same,relative viability,[13]; first compound 0.253 µM,0.206
same,relative viability,[13]; first compound 0.8 µM,0.232
same,relative viability,[13]; first compound 2.53 µM,0.218
same,relative viability,[13]; first compound 8 µM,0.221
same,relative viability,[14]; first compound 0.253 µM,0.48
same,relative viability,[14]; first compound 0.8 µM,0.496
same,relative viability,[14]; first compound 2.53 µM,0.432
same,relative viability,[14]; first compound 8 µM,0.464
same,relative viability,[15]; first compound 0.253 µM,0.534
same,relative viability,[15]; first compound 2.53 µM,0.517
same,relative viability,[15]; first compound 8 µM,0.442
same,relative viability,[16]; first compound 0.253 µM,0.225
same,relative viability,[16]; first compound 0.8 µM,0.216
same,relative viability,[16]; first compound 2.53 µM,0.236
same,relative viability,[16]; first compound 8 µM,0.2
same,relative viability,[17]; first compound 0.253 µM,0.467
same,relative viability,[17]; first compound 0.8 µM,0.36
same,relative viability,[17]; first compound 2.53 µM,0.402
same,relative viability,[17]; first compound 8 µM,0.287
same,relative viability,[18]; first compound 0.253 µM,0.405
same,relative viability,[18]; first compound 0.8 µM,0.303
same,relative viability,[18]; first compound 2.53 µM,0.326
same,relative viability,[18]; first compound 8 µM,0.355
same,relative viability,[19]; first compound 0.253 µM,0.386
same,relative viability,[19]; first compound 0.8 µM,0.377
same,relative viability,[19]; first compound 2.53 µM,0.348
same,relative viability,[19]; first compound 8 µM,0.357
same,relative viability,[20]; first compound 0.253 µM,0.697
same,relative viability,[20]; first compound 0.8 µM,0.684
same,relative viability,[20]; first compound 2.53 µM,0.64
same,relative viability,[20]; first compound 8 µM,0.631
same,relative viability,[21]; first compound 0.253 µM,0.172
same,relative viability,[21]; first compound 0.8 µM,0.19
same,relative viability,[21]; first compound 2.53 µM,0.256
same,relative viability,[21]; first compound 8 µM,0.18
same,relative viability,[22]; first compound 0.253 µM,0.545
same,relative viability,[22]; first compound 0.8 µM,0.511
same,relative viability,[22]; first compound 2.53 µM,0.548
same,relative viability,[22]; first compound 8 µM,0.57
same,relative viability,[23]; first compound 0.253 µM,1.09
same,relative viability,[23]; first compound 0.8 µM,1.06
same,relative viability,[23]; first compound 2.53 µM,1.21
same,relative viability,[23]; first compound 8 µM,1.03
same,relative viability,[24]; first compound 0.253 µM,0.366
same,relative viability,[24]; first compound 0.8 µM,0.342
same,relative viability,[24]; first compound 2.53 µM,0.413
same,relative viability,[24]; first compound 8 µM,0.354
same,relative viability,[25]; first compound 0.253 µM,0.317
same,relative viability,[25]; first compound 0.8 µM,0.312
same,relative viability,[25]; first compound 2.53 µM,0.278
same,relative viability,[25]; first compound 8 µM,0.156
